Experiments:
[1] = pure form; in water and in lower alcohols, such as methanol and ethanol; cited from earlier work
[2] = tested on: skin; assay: Tolerance of the preparation by the subjects in both tests; type: in vivo, healthy female volunteers; details: topical 4% (weight/volume) preparation
Experimental: (§1) The test was conducted on two test groups, each one of which comprised six healthy female volunteers. In the first test group (group 1), four cutaneous test areas were defined on the arm of each subject, and microcirculation was first measured for 30 minutes before the preparation was added. The skin was then cut by scraping in all the four areas, and onto the skin was pressed a filter paper into which a solution had been absorbed that contained 14 μl/cm^2 of 4% (weight/volume) trimethylglycine in distilled water, or only distilled water (placebo). Subsequently, microcirculation was measured for 60 minutes at the erythematous, damaged points on the skin, treated with the solution. In the second test group (group 2), the subjects' microcirculation was measured at the erythema in the same way as above, but the irritation was here caused by 30-minute infrared irradiation (IR Philips 250 S lamps, spectrum 700 to 2500 nm, power 250 W, light energy 70 mW/cm^2, irradiation area 14 cm^2) in the four cutaneous areas defined on the upper back.

[3] = tested on: mechanical skin irritation; assay: Thermal conductivity of the skin (microcirculation), skin cut by scraping, group 1; type: in vivo, healthy female volunteers; details: for % Variation, treated area/untreated area 1 (microcirculation): 4% (weight/volume) in distilled water, mean ± standard error; for % Variation, treated area/untreated area 1 (microcirculation) / Mean values of thermal conductivity (K), treated area: n=6
Experimental: (§2) The effect of trimethylglycine on the skin was studied by measuring the thermal conductivity of the skin by a method described by A. Dittmar in Cutaneous investigation in health and disease. Non-invasive methods and instrumentation, ed. J. L. Lévêque, Marcel Dekker Inc., New York-Basel, 1989. The method correlates directly with microcirculation on the skin. Thermal conductivity (K) is measured from the skin with a specific Hematron® thermal sensor and transformed into an electric signal, which is recorded by a recorder. In thermal conductivity (ΔK), a significant level of variation is 0.1 mW/cm.°C.
as §1, with “solution.” for “solution. In the second test group (group 2), the subjects' microcirculation was measured at the erythema in the same way as above, but the irritation was here caused by 30-minute infrared irradiation (IR Philips 250 S lamps, spectrum 700 to 2500 nm, power 250 W, light energy 70 mW/cm^2, irradiation area 14 cm^2) in the four cutaneous areas defined on the upper back.”
(§3) The thermal conductivity values measured on each volunteer subject are shown in table 1 (group 1) and table 2 (group 2). Tables 1 and 2 show the mean values (n=6) of thermal conductivity (K expressed as mW/cm .°C.) in the treated area, placebo area, and untreated areas at different instances of measuring. In tables 1 and 2, the treated area means an area treated with a preparation containing trimethylglycine; untreated area 1 is an untreated area that is symmetric with the area treated with the preparation containing trimethylglycine; the placebo area means an area treated with a placebo; and untreated area 2 is an untreated area that is symmetric with the area treated with the placebo.
(§4) Per /cent (%) variations between the treated area and untreated area 1, and the placebo area and untreated area 2 were calculated for each volunteer subject 30 and 60 min after application of the product. The variations were calculated using the formula [formula]

[4] = tested on: thermal skin irritation; assay: Thermal conductivity of the skin (microcirculation), infrared irradiation, group 2; type: in vivo, healthy female volunteers
Experimental: as §2
In the second test group (group 2), the subjects' microcirculation was measured at the erythema in the same way as above, but the irritation was here caused by 30-minute infrared irradiation (IR Philips 250 S lamps, spectrum 700 to 2500 nm, power 250 W, light energy 70 mW/cm^2, irradiation area 14 cm^2) in the four cutaneous areas defined on the upper back.
as §3, §4

SMILES: C[N+](C)(C)CC(=O)[O-] [trimethylglycine]
- Solubility [1]: readily soluble
- Tolerance / sensitivity of the subjects [2]: tolerated the trimethylglycine preparation well
- % Variation, treated area/untreated area 1 (microcirculation) ([3]; group 1, t30 min): -8.9±8.6%
- % Variation, treated area/untreated area 1 (microcirculation) ([3]; group 1, t60 min): -15.0±8.8%
- Effect against mechanical erythema as compared with the placebo ([3]; group 1, 4% (weight/volume) in water, effect detected 60 min after the application): effective against mechanical erythema
- Mean values of thermal conductivity (K), treated area ([3]; t0, before application of product, arm skin): 3.82 ± 0.59 mW/cm · ° C.
- Mean values of thermal conductivity (K), treated area ([3]; t30, 30 min after application of 4% (weight/volume) trimethylglycine in distilled water, 14 μl/cm^2, skin cut by scraping): 3.66 ± 0.69 mW/cm · ° C.
- Mean values of thermal conductivity (K), treated area ([3]; t60, 60 min after application of 4% (weight/volume) trimethylglycine in distilled water, 14 μl/cm^2, skin cut by scraping): 3.42 ± 0.41 mW/cm · ° C.
- % Variation, treated area/untreated area 1 (microcirculation) ([4]; group 2, t30 min, 4% (weight/volume) in distilled water, mean ± standard error, n=6): 23.5±11.8%
- Effect on thermal erythema ([4]; group 2, preparation containing trimethylglycine): no effect on thermal erythema
- Mean values of thermal conductivity (K), treated area ([4]; t0, before application of product, upper back, n=6): 3.13 ± 0.30 mW/cm · ° C.
- Mean values of thermal conductivity (K), treated area ([4]; t30, 30 min after application of 4% (weight/volume) trimethylglycine in distilled water, 30-minute infrared irradiation, n=6): 3.85 ± 0.31 mW/cm · ° C.
- Mean values of thermal conductivity (K), treated area ([4]; t60, 60 min after application of 4% (weight/volume) trimethylglycine in distilled water, 30-minute infrared irradiation, n=6): 3.60 ± 0.38 mW/cm · ° C.

— patent publication US20020018788A1, “PREPARATION PROTECTING SKIN FROM MECHANICAL IRRITATION” (priority 1996, published 2002)
